Tests used:
[1] = test system: C6-ADR cells; assay: Fluorescence and confocal imaging of intracellular DOX; format: cell-based, rat
Procedure: The internalization pathway of free DOX and NP-DOX were investigated by labeling endosomal compartments of cells with calcein after incubation with cells for 4 h.
C6-ADR cells were plated at 500,000 cells per well in 6-well plates containing 22×22 mm glass cover slips the night before treatment. Cells were treated with 1000 ng/mL free DOX or NP-DOX with equimolar concentration of DOX in 2 mL fully supplemented DMEM for 4 hrs before cells were washed three times with PBS and 2 mL fresh fully supplemented media added. After 24 hrs, cells were washed three times with PBS, and fixed in 4% formaldehyde (Polysciences Inc., Warrington, Pa.) for 30 min. Cell membranes were stained with wheat germ agglutinin, Alexa Fluor 488 conjugates (WGA-AF488, Invitrogen, Carlsbad, Calif.) following the manufacturer's protocol. The cover slips were then mounted on microscope slides using Prolong Gold anti-fade solution (Invitrogen, Carlsbad, Calif.) containing DAPI for cell nuclei staining. Images were acquired on an inverted fluorescent microscope (Nikon Instruments, Melville, N.Y.) with the appropriate filters using a Nikon Ril Color Cooled Camera System and 60× oil objective Lens. For internalization pathway experiment, cells were treated with DOX or NP-DOX in the presence of 0.25 mM calcein for 4 hrs. […] DOX and calcein uptake were analyzed using confocal microscopy (Zeiss 510 Meta).

[2] = test system: C6-ADR cells; assay: Intracellular DOX quantification; format: cell-based, rat; conditions: for intracellular concentration of DOX: 1000 ng/mL DOX
Procedure: Concurrently, intracellular concentration of DOX was determined (FIG. 6B) by UV analysis.

SMILES: COc1cccc2c1C(=O)c1c(O)c3c(c(O)c1C2=O)C[C@@](O)(C(=O)CO)C[C@@H]3O[C@H]1C[C@H](N)[C@H](O)[C@H](C)O1.Cl [free DOX, Doxorubicin.HCl]
- intracellular DOX fluorescence ([1]; C6-ADR cells treated 4 h, imaged 24 h after initial incubation): minimal fluorescence
- intracellular localization of DOX signal (calcein-labeled endosomes) ([1]; C6-ADR cells, 4 h incubation, confocal): partially colocalized with nucleus and partially localized in cytoplasma
- intracellular concentration of DOX ([2]; 24 h after treatment): 0.13±0.01 pg/cell
- decrease of intracellular DOX concentration ([2]; by 24 h after initial exposure): 91%
- intracellular concentration of DOX ([2]; four hours after treatment): 1.49±0.05 pg/cell
